Laboratory results taken from patent publication US10450297B2, “Sulfonyl amide derivatives for the treatment of abnormal cell growth” (Pfizer, Inc., priority 2007, dated 2019).

Target: FAK kinase (catalytic construct FAK(410-689)) (Homo sapiens (Human), UniProt Q05397)
Assay: FAKcd kinase ELISA (inhibition of poly-glu-tyr phosphorylation by FAK(410-689))
Format: biochemical
Details: 50 μM final ATP
Protocol: A. In-Vitro Activity of FAK:
The assay protocol has three parts:
3. […] 4. […] 5. […] 6. […] 7. […] 9. […] 10. […] 12. […] 13. […] 14. Aliquot the FAKcd protein and store frozen at −80° C. II. FAK Activation 1. […] At t120 (t=120 minutes), add 10 μl of 150 mM ATP. […] Add 180 μl aliquots of the desalted material to NiNTA spin column and incubate on spin column 4. […] FAKcd Kinase ELISA 1. Coat 96-well Nunc MaxiSorp plates with poly-glu-tyr (pGT) at […]: Prepare 10 μg/ml of pGT in PBS and aliquot 100 μl/well. Incubate the plates at 37° C. overnight, aspirate the supernatant, wash the plates 3 times with Wash Buffer, and flick to dry before storing at 4° C. 2. Prepare compound stock solutions of 2.5 mM in 100% DMSO. The stocks are subsequently diluted to 60× of the final concentration in 100% DMSO, and diluted 1:5 in Kinase Phosphorylation Buffer. 3. […] Add 80 μl to each well for a final ATP concentration of 50 μM. 4. […] 5. Dilute on ice, FAKcd protein to 1:1000 in Kinase Phosphorylation Buffer. Dispense 30 μl per well. 6. Note: Linearity and the appropriate dilution must be pre-determined for each batch of protein. The enzyme concentration selected should be such that quantitation of the assay signal will be approximately 0.8-1.0 at OD450, and in the linear range of the reaction rate. 7. Prepare both a No ATP control (noise) and a No Compound Control (Signal): 8. (Noise) One blank row of wells receives 10 μl of 1:5 diluted compounds in DMSO, 80 μl of Phosphorylation buffer (minus ATP), and 30 μl FAKcd solution. 9. […] 10. Incubate reaction at room temperature for 15 minutes with gentle shaking on a plate shaker. 11. Terminate the reaction by aspirating off the reaction mixture and washing 3 times with wash buffer. 12. Dilute phospho-tyrosine HRP-conjugated (pY20HRP) antibody to 0.250 μg/ml (1:1000 of Stock) in blocking buffer. Dispense 100 μl per well, and incubate with shaking for 30 minutes at 25°. 13. Aspirate the supernatant and wash the plate 3 times with wash buffer. 14. Add 100 μl per well of room temperature TMB solution to initiate color development. Color development is terminated after approximately 15-30 sec. by the addition of 100 μl of 0.09M H2SO4 per well. 15. The signal is quantitated by measurement of absorbance at 450 nm on the BioRad ricroplate reader or a microplate reader capable of reading at OD450. 16. Inhibition of tyrosine kinase activity would result in a reduced absorbance signal. […] The values are reported as IC50s, μM concentration. FAK Inducible cell-based ELISA: Final Protocol Materials: […]

Sequence of FAK kinase (catalytic construct FAK(410-689)) (Q05397 410-689): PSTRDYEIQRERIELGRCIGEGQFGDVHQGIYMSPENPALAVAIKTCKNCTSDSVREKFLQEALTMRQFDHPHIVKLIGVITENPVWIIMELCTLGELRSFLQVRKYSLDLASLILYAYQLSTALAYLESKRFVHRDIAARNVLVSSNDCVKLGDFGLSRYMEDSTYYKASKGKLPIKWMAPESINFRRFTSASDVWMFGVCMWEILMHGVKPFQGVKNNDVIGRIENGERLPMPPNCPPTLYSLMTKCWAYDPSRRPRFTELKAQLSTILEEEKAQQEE

**Q.** With `CN(c1ncccc1CNc1nc(Nc2cccc(C(=O)N3CCNC(=O)C3)c2)ncc1C(F)(F)F)S(C)(=O)=O` [Compound 213, N-methyl-N-[3-({[2-({3-[(3-oxopiperazin-1-yl)carbonyl]phenyl}amino)-5-(trifluoromethyl)pyrimidin-4-yl]amino}methyl)pyridin-2-yl]methanesulfonamide] as the molecule, how does the IC50 read?
**A.** 2.88 nM

**Q.** For `C[C@H]1COCCN1C(=O)c1ccc(Nc2ncc(C(F)(F)F)c(NCc3cccnc3N(C)S(C)(=O)=O)n2)cc1` [Compound 261, N-methyl-N-{3-[({2-[(4-{[(3S)-3-rnethylmorpholin-4-yl]carbonyl}phenyl)amino]-5-(trifluoromethyl)pyrimidin-4-yl}amino)methyl]pyridin-2-yl}methanesulfonamide], which IC50 is on record?
**A.** 1.13 nM

**Q.** Which IC50 does the source give for `CN(c1ncccc1CNc1nc(Nc2ccc(F)c(C(N)=O)c2)ncc1C(F)(F)F)S(C)(=O)=O` [Compound 380, 2-fluoro-5-({4-[{{2-[methyl(methylsulfonyl)amino]pyridin-3-yl}methyl)amino]-5-(trifluoromethyl)pyrimidin-2-yl}amino)benzamide] here?
**A.** 1.6 nM

**Q.** How did the IC50 turn out when `Cc1cccc(N(C)S(C)(=O)=O)c1CNc1nc(Nc2ccccc2)ncc1C(F)(F)F` [Compound 67, N-[2-({[2-anilino-5-(trifluoromethyl)pyrimidin-4-yl]amino}methyl)-3-methylphenyl]-N-methylmethanesulfonamide] was run?
**A.** 0.6 nM

**Q.** With `CNC(=O)c1ccc(Nc2ncc(C(F)(F)F)c(NCc3nccnc3N(C)S(C)(=O)=O)n2)c(F)c1` [Compound 368, 3-fluoro-N-methyl-4-({4-[({3-[methyl(methylsulfonyl)amino]pyrazin-2-yl}methyl)amino]-5-(trifluoromethyl)pyrimidin-2-yl}amino)benzamide] as the molecule, how does the IC50 read?
**A.** < 0.595 nM

**Q.** `CS(=O)(=O)c1cccc(CNc2nc(Nc3ccc(S(C)(=O)=O)nc3)ncc2C(F)(F)F)c1` [Compound 24, N-4-[3-(methylsulfonyl)benzyl]-N-2-[6-(rnethylsulfonyl)pyridin-3-yl]-5-(trifluoromethyl)-pyrimidine-2,4-diamine] was tested. Which IC50 did it give?
**A.** 337 nM

**Q.** Which IC50 does the source give for `CN(c1nccnc1CNc1nc(Nc2ccc(C(N)=O)c(Cl)c2)ncc1C(F)(F)F)S(C)(=O)=O` [Compound 360, 2-chloro-4-({4-[({3-[methyl(methylsulfonyl)amino]pyrazin-2-yl}methyl)amino]-5-(trifluoromethyl)pyrimidin-2-yl}amino)benzamide] here?
**A.** < 0.595 nM

**Q.** For `Cc1cc(Nc2ncc(C(F)(F)F)c(NCc3cc(N(C)S(C)(=O)=O)ccn3)n2)ccc1C(N)=O` [Compound 406, 2-methyl-4-({4-[({4-[methyl(methylsulfonyl)amino]pyridin-2-yl}methyl)amino]-5-(trifluoromethyl)pyrimidin-2-yl}amino)benzamide], which IC50 is on record?
**A.** 0.784 nM

**Q.** With `CN(c1cccc(CNc2nc(Nc3cc(C(N)=O)ccc3F)ncc2C(F)(F)F)c1)S(C)(=O)=O` [Compound 374, 4-fluoro-3-{[4-({3-[methyl(methylsulfonyl)amino]benzyl}amino)-5-(trifluoromethyl)pyrimidin-2-yl]amino}benzamide] as the molecule, how does the IC50 read?
**A.** 15.5 nM

**Q.** `CNCc1ccc(Nc2ncc(C(F)(F)F)c(NCc3ccccc3N(C)S(C)(=O)=O)n2)cc1` [Compound 415, N-methyl-N-[2-({[2-({4-[(methylamino)methyl]phenyl}amino)-5-(trifluoromethyl)pyrimidin-4-yl]amino}methyl)phenyl]methanesulfonamide] was tested. Which IC50 did it give?
**A.** < 0.595 nM

**Q.** For `CN1CCC(NC(=O)c2cccc(Nc3ncc(C(F)(F)F)c(NCc4cccnc4N(C)S(C)(=O)=O)n3)c2)CC1` [Compound 173, 3-({4-[({2-[methyl(methylsulfonyl)amino]pyridin-3-yl}methyl)amino]-5-(trifluoromethyl)pyrimidin-2-yl}amino)-N-(1-methylpiperidin-4-yl)benzamide], which IC50 is on record?
**A.** 0.96 nM

**Q.** For `Cc1cccc(NS(C)(=O)=O)c1CNc1nc(Nc2ccc(C(N)=O)cc2)ncc1C(F)(F)F` [Compound 113, 4-{[4-({2-methyl-6-[(methylsulfonyl)amino]benzyl}amino)-5-(trifluoromethyl)pyrimidin-2-yl]amino}benzamide], which IC50 is on record?
**A.** 0.6 nM

**Q.** With `CN(c1nccnc1CNc1nc(Nc2ccccc2)ncc1C(F)(F)F)S(C)(=O)=O` [Compound 75, N-[3-({[2-anilino-5-(trifluoromethyl)pyrimidin-4-yl]amino}methyl)pyrazin-2-yl]-N-methylmethane-sulfonamide] as the molecule, how does the IC50 read?
**A.** 0.6 nM

**Q.** With `CCOC(=O)Cc1ccc(Nc2ncc(C(F)(F)F)c(NCc3cccnc3N(C)S(C)(=O)=O)n2)cc1` [Compound 98, ethyl [4-({4-[({2-[methyl(methylsulfonyl)amino]pyridin-3-yl}methyl)amino]-5-(trifluoromethyl)pyrimidin-2-yl}amino)phenyl]acetate] as the molecule, how does the IC50 read?
**A.** 0.59 nM

**Q.** For `Cc1ccc(CNc2nc(Nc3ccc(C(N)=O)cc3)ncc2C(F)(F)F)c(N(C)S(C)(=O)=O)n1` [Compound 21, 4-({4-[{{6-methyl-2-[methyl(methylsulfonyl)amino]pyridin-3-yl}methyl)amino]-5-(trifluoromethyl)pyrimidin-2-yl}amino)benzamide], which IC50 is on record?
**A.** 1 nM

**Q.** Which IC50 does the source give for `CC(C)NC(=O)c1ccc(Nc2ncc(C(F)(F)F)c(NCc3cccnc3N(C)S(C)(=O)=O)n2)cc1` [Compound 242, N-isopropyl-4-({4-[({2-[methyl(methylsulfonyl)amino]pyridin-3-yl}methyl)amino]-5-(trifluoromethyl)pyrimidin-2-yl}amino)benzamide] here?
**A.** 1 nM

**Q.** With `CN(CCO)C(=O)c1cccc(Nc2ncc(C(F)(F)F)c(NCc3cccnc3N(C)S(C)(=O)=O)n2)c1` [Compound 115, N-(2-hydroxyethyl}-N-methyl-3-({4-[({2-[methyl(methylsulfonyl)amino]pyridin-3-yl)methyl)amino]-5-(trifluoromethyl)pyrimidin-2-yl}amino)benzamide] as the molecule, how does the IC50 read?
**A.** 0.88 nM

**Q.** How did the IC50 turn out when `CN(c1ncccc1CNc1nc(Nc2ccc(C(=O)NCc3ccccc3)cc2)ncc1C(F)(F)F)S(C)(=O)=O` [Compound 271, N-benzyl-4-({4-[({2-[methyl(methylsulfonyl)amino]pyridin-3-yl}methyl)amino]-5-(trifluoromethyl)pyrimidin-2-yl}amino)benzamide] was run?
**A.** 1.14 nM

**Q.** For `CNC(=O)c1ccc(Nc2ncc(C(F)(F)F)c(NCc3nccnc3N(C)S(C)(=O)=O)n2)cc1F` [Compound 370, 2-fluoro-N-methyl-4-({4-(({3-[methyl(methylsulfonyl)amino]pyrazin-2-yl}methyl)amino]-5-(trifluoromethyl)pyrimidin-2-yl}amino)benzamide], which IC50 is on record?
**A.** 0.6 nM

**Q.** For `CN(c1nccnc1CNc1nc(Nc2ccc(C(C)(C)O)cc2)ncc1C(F)(F)F)S(C)(=O)=O` [Compound 326, N-[3-({[2-{(4-(1-hydroxy-1-methylethyl)phenyl]amino}-5-(trifluoromethyl)pyrimidin-4-yl]amino}methyl)pyrazin-2-yl]-N-methylmethane-sulfonamide], which IC50 is on record?
**A.** 1.62 nM

**Q.** `C[C@H](N)c1ccc(Nc2ncc(C(F)(F)F)c(NCc3ncccc3N(C)S(C)(=O)=O)n2)cc1` [Compound 356, N-[2-({[2-({4-[(1S)-1-aminoethyl]phenyl}amino)-5-(trifluoromethyl)pyrimidin-4-yl]amino}methyl)pyridin-3-yl]-N-methylmethane-sulfonamide] was tested. Which IC50 did it give?
**A.** 0.593 nM

**Q.** How did the IC50 turn out when `CCNC(=O)c1ccc(Nc2ncc(C(F)(F)F)c(NCc3cccc(S(C)(=O)=O)c3)n2)cc1` [Compound 77, N-ethyl-4-{[4-{[3-(methylsulfonyl)benzyl]amino}-5-(trifluoromethyl)pyrimidin-2-yl]amino}benzamide] was run?
**A.** 0.6 nM
